ChEMBL document CHEMBL1127124, “Selective inactivation of monoamine oxidase B by aminoethyl 3-chlorobenzyl ether” (Bioorg Med Chem Lett, 1993)

Legend:
[1] = target: T1, Amine oxidase [flavin-containing] B (Bos taurus, UniProt P56560); experiment: Tested for enzyme affinity with purified bovine liver MAO B
T1 sequence (P56560 whole entry): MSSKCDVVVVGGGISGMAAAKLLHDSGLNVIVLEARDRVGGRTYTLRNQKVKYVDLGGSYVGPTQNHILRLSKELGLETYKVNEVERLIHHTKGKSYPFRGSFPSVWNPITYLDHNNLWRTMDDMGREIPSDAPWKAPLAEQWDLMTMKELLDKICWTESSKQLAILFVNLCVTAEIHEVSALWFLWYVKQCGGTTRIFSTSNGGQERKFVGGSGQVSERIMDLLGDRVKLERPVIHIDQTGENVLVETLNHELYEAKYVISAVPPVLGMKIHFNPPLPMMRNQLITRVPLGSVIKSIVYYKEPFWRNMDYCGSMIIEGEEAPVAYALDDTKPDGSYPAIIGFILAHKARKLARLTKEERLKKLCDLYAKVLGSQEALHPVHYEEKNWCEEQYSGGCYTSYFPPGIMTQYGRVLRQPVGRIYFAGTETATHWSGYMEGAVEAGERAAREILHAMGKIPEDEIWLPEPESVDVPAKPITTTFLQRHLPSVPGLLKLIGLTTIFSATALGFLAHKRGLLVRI

[2] = target: T1, Amine oxidase [flavin-containing] B; experiment: Tested for enzyme kinetic activity with purified bovine liver MAO B; settings: cattle
[3] = target: T2, Amine oxidase [flavin-containing] A (Bos taurus, UniProt P21398); experiment: Tested for enzyme affinity with purified bovine liver MAO A
T2 sequence (P21398 whole entry): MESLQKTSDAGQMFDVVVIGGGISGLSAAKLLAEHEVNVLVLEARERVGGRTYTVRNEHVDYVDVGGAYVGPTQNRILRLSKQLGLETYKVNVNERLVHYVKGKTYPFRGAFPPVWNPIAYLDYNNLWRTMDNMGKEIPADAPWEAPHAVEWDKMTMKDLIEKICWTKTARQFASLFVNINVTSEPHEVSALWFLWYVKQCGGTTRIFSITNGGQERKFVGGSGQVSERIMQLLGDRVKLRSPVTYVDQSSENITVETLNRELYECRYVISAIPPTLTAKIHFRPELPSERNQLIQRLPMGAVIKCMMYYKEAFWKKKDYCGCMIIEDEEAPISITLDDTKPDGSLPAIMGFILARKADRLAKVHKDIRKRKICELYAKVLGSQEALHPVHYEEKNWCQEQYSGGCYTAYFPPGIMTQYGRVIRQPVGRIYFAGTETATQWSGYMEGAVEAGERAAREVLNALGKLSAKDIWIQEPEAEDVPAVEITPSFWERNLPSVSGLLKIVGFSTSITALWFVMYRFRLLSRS

[4] = target: T2, Amine oxidase [flavin-containing] A; experiment: Tested for enzyme kinetic activity with purified bovine liver MAO A; settings: cattle

Ki [1]: 5 µM
kinact [2]: 0.0117 s⁻¹
Ki [3]: 340 µM
kinact [4]: 0.000467 s⁻¹
Structure (SMILES): NCCOCc1cccc(Cl)c1
